Experimental data taken from BindingDB's records for doi:10.7270/Q2CF9NJZ (Nmmlsc, 2010).

These molecules were tested against Regulator of G-protein signaling 4 (Homo sapiens, UniProt P49798) (assay: small molecules altering RGS4 interaction with Galphao – biochemical, multiplexed bead flow cytometry, SAR compounds, SAR follow-up (AID 2295)). Details: not given.
Chain of Regulator of G-protein signaling 4 (P49798 whole entry): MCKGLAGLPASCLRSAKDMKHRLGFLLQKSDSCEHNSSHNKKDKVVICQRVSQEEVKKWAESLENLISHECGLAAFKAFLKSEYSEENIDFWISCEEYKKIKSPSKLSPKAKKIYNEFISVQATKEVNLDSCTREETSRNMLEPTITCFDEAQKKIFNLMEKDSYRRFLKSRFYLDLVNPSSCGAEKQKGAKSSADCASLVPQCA

Row | Compound | EC50 [µM]
1 | CN1CCN(C2=C(Cl)C(=O)C(c3cnc(N4CCCCC4)s3)=C(Cl)C2=O)CC1 | 0.336
2 | CCN=c1scc(C)n1N=Cc1ccc(O)c(O)c1O | 3.52
3 | CCN(CC)S(=O)(=O)c1cccc(C(=O)NN=Cc2ccc(O)c(O)c2O)c1 | 0.632
4 | Cc1cccc(N2CCN(C(=O)COc3nsc4nc(C)cc(C)c34)CC2C)c1 (configuration not stated) | 6.85
5 | Cc1cccc(N2CCN(C(=O)Cn3ccc4nc(C)cc(C)c4c3=O)CC2C)c1 (configuration not stated) [2,4-dimethyl-6-[2-[3-methyl-4-(3-methylphenyl)piperazin-1-yl]-2-oxidanylidene-ethyl]-1,6-naphthyridin-5-one] | > 30
6 | Cc1cc(C)c2c(=O)n(CC(=O)N3CCN(c4ccccc4)CC3)ccc2n1 [2,4-dimethyl-6-[2-oxidanylidene-2-(4-phenylpiperazin-1-yl)ethyl]-1,6-naphthyridin-5-one] | > 30
7 | Cc1cc(C)c2c(n1)CCN(CC(=O)N1CCN(c3ccccc3)CC1)C2=O [2,4-dimethyl-6-[2-oxidanylidene-2-(4-phenylpiperazin-1-yl)ethyl]-7,8-dihydro-1,6-naphthyridin-5-one] | > 30
8 | O=c1c2ccccc2sn1-c1ccc(S(=O)(=O)N2CCCC2)cc1 [2-(4-pyrrolidin-1-ylsulfonylphenyl)-1,2-benzothiazol-3-one] | 0.323
9 | Cc1cccc(N2CCN(C(=O)COc3noc4nc(C)cc(C)c34)CC2C)c1 (configuration not stated) [2-[(4,6-dimethyl-[1,2]oxazolo[5,4-b]pyridin-3-yl)oxy]-1-[3-methyl-4-(3-methylphenyl)piperazin-1-yl]ethanone] | > 30
10 | O=c1c2ccccc2sn1-c1ccccc1 [2-phenyl-1,2-benzothiazol-3-one] | 0.135
11 | O=C(NCCCN1CCOCC1)c1sc2cc([N+](=O)[O-])ccc2c1Cl [3-chloranyl-N-(3-morpholin-4-ylpropyl)-6-nitro-1-benzothiophene-2-carboxamide] | 10.1
12 | COC(=O)CCC(=O)Nc1sc(C)c(C)c1C(N)=O [4-[(3-carbamoyl-4,5-dimethyl-2-thienyl)amino]-4-keto-butyric acid methyl ester] | > 30
13 | CCN(CC)S(=O)(=O)c1cccc(-c2n[nH]c(=S)n2N=Cc2ccc(C(=O)OC)cc2)c1 [4-[(E)-[3-[3-(diethylsulfamoyl)phenyl]-5-thioxo-1H-1,2,4-triazol-4-yl]iminomethyl]benzoic acid methyl ester] | 9.64
14 | NS(=O)(=O)c1ccc(N=NCc2ccc(O)c(O)c2O)c([N+](=O)[O-])c1 [4-[[(E)-(2,3-dihydroxy-4-oxo-1-cyclohexa-2,5-dienylidene)methyl]hydrazo]-3-nitrobenzenesulfonamide] | 1.2
15 | CCOC(=O)c1sc(NC(=O)CSc2nnc(Cc3ccccc3)o2)c(C#N)c1C [4-cyano-3-methyl-5-[[1-oxo-2-[[5-(phenylmethyl)-1,3,4-oxadiazol-2-yl]thio]ethyl]amino]-2-thiophenecarboxylic acid ethyl ester] | 7.85
16 | CN=c1scc(C)n1N=Cc1ccc(O)c(O)c1O [(4E)-2,3-dihydroxy-4-[[(4-methyl-2-methylimino-1,3-thiazol-3-yl)amino]methylidene]cyclohexa-2,5-dien-1-one] | 1.71
17 | Cc1[nH]n(-c2ccccc2)c(=S)c1/C=N/c1cccc([N+](=O)[O-])c1 [(4E)-5-methyl-4-[(3-nitroanilino)methylene]-2-phenyl-2-pyrazoline-3-thione] | 11
18 | Cc1cccc(N2CCN(C(=O)CN3CCc4nc(C)cc(C)c4C3=O)CC2C)c1 (configuration not stated) [KUC103675N] | > 30
19 | Cc1cc(Cl)ccc1/N=c1/ssnc1Cl [MLS000539990] | 0.3
20 | O=C1C(Cl)=C(N2CCCCC2)C(=O)C(Cl)=C1c1cnc(N2CCCCC2)s1 [MLS000550549] | 0.269
21 | CCC(=O)NC(c1ccc(C)cc1)c1cc([N+](=O)[O-])c2cccnc2c1O (configuration not stated) [MLS000553854] | 6.61
22 | COc1ccc(C2=CC(=O)C=CC2=O)cc1 [MLS001029846] | 0.573
23 | O=C(COc1ccccc1C(=O)NN=Cc1ccc(O)c(O)c1)NN=Cc1ccc(O)c(O)c1 [N''-[(Z)-(3-hydroxy-4-oxo-1-cyclohexa-2,5-dienylidene)methyl]-2-[2-[[(Z)-(3-hydroxy-4-oxo-1-cyclohexa-2,5-dienylidene)methyl]hydrazo]-2-oxoethoxy]benzohydrazide] | 0.164
24 | CC1(C)OC(=O)C(=Cc2ccc(-c3ccc(S(N)(=O)=O)cc3)o2)C(=O)O1 [SMR000273939] | > 30
25 | O=C(Cc1csc(N2CCOCC2)n1)NN=Cc1ccc(O)c(O)c1O [SMR000369439] | 1.1
26 | Nc1c(C(=O)NCC2CCCO2)sc2nc3c(c(-c4ccco4)c12)CC/C3=C/c1ccco1 (configuration not stated) [UNM-0000305796] | > 30

Same assay, conditions: inactive by the depositor's call

Row | Compound | EC50 [µM]
27 | CCOc1ccccc1-c1c2cc(O)c(=O)cc-2oc2cc(O)c(O)cc12 [MLS000578271] | 3.66
